Measured values as given in patent publication US20240208992A1, “MACROCYCLES AS CFTR MODULATORS” (Idorsia Pharmaceuticals Ltd, priority 2021, published 2024).

Target: human F508del-CFTR (Homo sapiens, UniProt P13569, DEL508-508)
Assay: F508del-CFTR cell surface expression (corrector activity), DiscoveRx ß-galactosidase complementation chemiluminescence assay in recombinant U2OS cell line;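 further: U2OS cells co-expressing ProLink-tagged F508del-CFTR and a membrane-anchored enzyme acceptor, where more surface CFTR restores β-galactosidase activity measured by chemiluminescence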
Conditions: for EC50: EC50, F508del-CFTR cell surface expression; for Emax: U2OS
[1] = U2OS cell line, 16h compound incubation, geomean values
[2] = in relation to the Emax of the corrector lumacaftor (=100%), U2OS cell line, 16h compound incubation, arithmetic mean values
[3] = U2OS cells, 16h compound incubation, geomean values
[4] = in relation to Emax of corrector lumacaftor (=100%), arithmetic mean values

Chain of human F508del-CFTR (P13569 with tags, fused parts or gaps DEL508-508): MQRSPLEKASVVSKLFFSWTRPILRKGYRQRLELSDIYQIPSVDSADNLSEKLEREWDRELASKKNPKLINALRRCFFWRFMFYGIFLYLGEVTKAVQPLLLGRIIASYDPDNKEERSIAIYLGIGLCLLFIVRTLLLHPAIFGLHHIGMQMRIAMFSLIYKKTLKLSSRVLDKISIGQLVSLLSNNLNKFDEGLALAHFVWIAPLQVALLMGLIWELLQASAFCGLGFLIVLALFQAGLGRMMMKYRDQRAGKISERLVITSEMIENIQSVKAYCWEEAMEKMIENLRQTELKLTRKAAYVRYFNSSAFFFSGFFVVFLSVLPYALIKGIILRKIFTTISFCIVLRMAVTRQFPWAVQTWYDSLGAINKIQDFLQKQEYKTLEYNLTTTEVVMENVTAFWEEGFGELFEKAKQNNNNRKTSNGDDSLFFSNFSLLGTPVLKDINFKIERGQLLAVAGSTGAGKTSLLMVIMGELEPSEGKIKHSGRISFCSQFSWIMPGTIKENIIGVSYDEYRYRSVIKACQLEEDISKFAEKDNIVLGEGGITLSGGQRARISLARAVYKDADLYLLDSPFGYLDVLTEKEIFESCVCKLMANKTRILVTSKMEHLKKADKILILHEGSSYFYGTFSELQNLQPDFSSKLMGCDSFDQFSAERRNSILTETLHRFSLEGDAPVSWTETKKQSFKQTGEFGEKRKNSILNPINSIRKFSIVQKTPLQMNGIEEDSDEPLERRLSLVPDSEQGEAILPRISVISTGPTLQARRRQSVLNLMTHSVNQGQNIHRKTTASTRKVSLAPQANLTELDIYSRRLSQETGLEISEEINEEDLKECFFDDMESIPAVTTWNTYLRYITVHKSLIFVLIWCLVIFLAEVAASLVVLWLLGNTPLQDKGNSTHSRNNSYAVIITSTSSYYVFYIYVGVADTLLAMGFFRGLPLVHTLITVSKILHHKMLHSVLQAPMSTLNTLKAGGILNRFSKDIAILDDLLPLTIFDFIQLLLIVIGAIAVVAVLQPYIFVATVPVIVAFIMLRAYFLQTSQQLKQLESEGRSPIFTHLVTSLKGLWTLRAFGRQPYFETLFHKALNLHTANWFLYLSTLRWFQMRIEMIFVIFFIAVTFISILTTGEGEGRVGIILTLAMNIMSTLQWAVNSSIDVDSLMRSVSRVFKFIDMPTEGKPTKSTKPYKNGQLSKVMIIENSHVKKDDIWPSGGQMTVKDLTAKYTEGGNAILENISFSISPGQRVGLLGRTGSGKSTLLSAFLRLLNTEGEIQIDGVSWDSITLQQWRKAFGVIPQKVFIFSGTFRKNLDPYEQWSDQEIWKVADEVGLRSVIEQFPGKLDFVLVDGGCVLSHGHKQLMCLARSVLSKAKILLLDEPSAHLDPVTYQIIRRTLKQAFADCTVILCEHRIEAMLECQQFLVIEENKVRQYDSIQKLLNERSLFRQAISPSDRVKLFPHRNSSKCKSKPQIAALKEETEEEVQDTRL

SMILES | EC50 [1] [nM] | EC50 [3] [nM] | Emax [4] [%] | also measured
Cc1ccccc1CCNC(=O)[C@@H]1CC(=O)N(C)[C@@H](CC(C)C)C(=O)N2CCOC[C@@H]2C(=O)N[C@H](Cc2ccccc2)COc2cnc3ccccc3c2C(=O)N1 [Example 64, (9S,13S,19aR,22R)-22-benzyl-13-isobutyl-12-methyl-N-(2-methylphenethyl)-7,11,14,20-tetraoxo-7,8,9,10,11,12,13,14,16,17,19,19a,20,21,22,23-hexadecahydro-[1,4]oxazino[3′,4′:6,7][1]oxa[4,7,10,14]tetraazacycloheptadecino[17,16-c]quinoline-9-carboxamide] | 441 |  |  | Emax [2]: 143%
Cc1cc2c3c(ccc2cn1)OC[C@@H](Cc1ccccc1)NC(=O)[C@@H](CC(F)(F)F)N(C)C(=O)[C@H](CC(C)C)N(C)C(=O)C[C@@H](C(=O)NCCc1cc(C2CC2)on1)NC3=O [Example 958, (3S,7S,10R,13R)-13-benzyl-N-(2-(5-cyclopropylisoxazol-3-yl)ethyl)-7-isobutyl-6,9,20-trimethyl-1,5,8,11-tetraoxo-10-(2,2,2-trifluoroethyl)-1,2,3,4,5,6,7,8,9,10,11,12,13,14-tetradecahydro-[1]oxa[4,7,10,14]tetraazacycloheptadecino[16,17-f]isoquinoline-3-carboxamide] |  |  |  | EC50 (U2OS cells, 16h compound incubation, geomean of several measurements): 338 nM; Emax (in relation to the Emax of the corrector lumacaftor (=100%), U2OS cells, 16h compound incubation, arithmetic mean): 439%
CC(C)C[C@H]1C(=O)N(C[C@H]2CCCCO2)CC(=O)N[C@H](Cc2ccccc2)COc2ccc3ccccc3c2C(=O)N[C@H](C(=O)NCCc2ccc3c(c2)OCO3)CC(=O)N1C (mixture of isomers) [Example 162, (3RS,7S,13R)-N-(2-(benzo[d][1,3]dioxol-5-yl)ethyl)-13-benzyl-7-isobutyl-6-methyl-1,5,8,11-tetraoxo-9-(((R)-tetrahydro-2H-pyran-2-yl)methyl)-1,2,3,4,5,6,7,8,9,10,11,12,13,14-tetradecahydronaphtho[1,2-p][1]oxa[4,7,10,14]tetraazacycloheptadecine-3-carboxamide] | 472 |  |  | 
Cc1nc2ccc3c(c2o1)C(=O)N[C@H](C(=O)NCCc1cccc(OC(F)F)c1)CC(=O)N(C)[C@@H](CC(C)C)C(=O)N1CCOC[C@@H]1C(=O)N[C@H](Cc1ccccc1)CO3 [Example 625] |  | 781 | 186 | 
CN1C(=O)C[C@@H](C(=O)NCCc2ccc3c(c2)OCO3)NC(=O)c2c(ccc3ccccc23)OC[C@@H](Cc2ccccc2)NC(=O)CN(C[C@@H]2CCCCO2)C(=O)[C@@H]1CC1CCCCC1 (mixture of isomers) [Example 285, (3RS,7S,13R)-N-(2-(benzo[d][1,3]dioxol-5-yl)ethyl)-13-benzyl-7-(cyclohexylmethyl)-6-methyl-1,5,8,11-tetraoxo-9-(((S)-tetrahydro-2H-pyran-2-yl)methyl)-1,2,3,4,5,6,7,8,9,10,11,12,13,14-tetradecahydronaphtho[1,2-p][1]oxa[4,7,10,14]tetraazacycloheptadecine-3-carboxamide] | 239 |  |  | 
CC(C)C[C@H]1C(=O)N2CCCC[C@@H]2C(=O)N[C@H](Cc2ccccc2)COc2ccc3c(cnn3C)c2C(=O)N[C@H](C(=O)NCCc2c(F)cccc2F)CC(=O)N1C [Example 490, (8S,12S,18aR,21R)-21-benzyl-N-(2,6-difluorophenethyl)-12-isobutyl-3,11-dimethyl-6,10,13,19-tetraoxo-6,7,8,9,10,11,12,13,16,17,18,18a,19,20,21,22-hexadecahydro-3H,15H-pyrido[2′,1′:6,7][1]oxa[4,7,10,14]tetraazacycloheptadecino[16,17-e]indazole-8-carboxamide] |  | 222 | 181 | 
CC(C)C[C@H]1C(=O)N(C)[C@@H](CC2CCCC2)C(=O)N[C@H](Cc2ccccc2)COc2cnc3ccc(F)cc3c2C(=O)N[C@H](C(=O)NCCc2noc(C3CC3)n2)CC(=O)N1C [Example 694, (3S,7S,10S,13R)-13-benzyl-10-(cyclopentylmethyl)-N-(2-(5-cyclopropyl-1,2,4-oxadiazol-3-yl)ethyl)-20-fluoro-7-isobutyl-6,9-dimethyl-1,5,8,11-tetraoxo-1,2,3,4,5,6,7,8,9,10,11,12,13,14-tetradecahydro-[1]oxa[4,7,10,14]tetraazacycloheptadecino[17,16-c]quinoline-3-carboxamide] |  | 241 | 213 | 
CC(C)C[C@H]1C(=O)N2CCN(C3CC3)C[C@H]2C(=O)N[C@H](Cc2ccccc2)COc2cnc3ccccc3c2C(=O)N[C@H](C(=O)NCCc2cccc(OC(F)F)c2)CC(=O)N1C [Example 399, (9S,13S,19aS,22R)-22-benzyl-18-cyclopropyl-N-(3-(difluoromethoxy)phenethyl)-13-isobutyl-12-methyl-7,11,14,20-tetraoxo-7,8,9,10,11,12,13,14,17,18,19,19a,20,21,22,23-hexadecahydro-16H-pyrazino[2′,1′:6,7][1]oxa[4,7,10,14]tetraazacycloheptadecino[17,16-c]quinoline-9-carboxamide] |  | 506 | 146 | 
COc1nccc2c1C(=O)N[C@H](C(=O)NCCc1noc(C3CC3)n1)CC(=O)N(C)[C@@H](CC(C)C)C(=O)N(C)[C@H](c1ccccc1)C(=O)N[C@H](Cc1ccccc1)CO2 [Example 681, (3R,6R,9S,13S)-3-benzyl-N-(2-(5-cyclopropyl-1,2,4-oxadiazol-3-yl)ethyl)-9-isobutyl-16-methoxy-7,10-dimethyl-5,8,11,15-tetraoxo-6-phenyl-2,3,4,5,6,7,8,9,10,11,12,13,14,15-tetradecahydropyrido[3,4-p][1]oxa[4,7,10,14]tetraazacycloheptadecine-13-carboxamide] |  | 447 | 313 | 
CC(C)C[C@H]1C(=O)N2CCCC[C@@H]2C(=O)N[C@H](Cc2ccccc2)COc2cnc3ccccc3c2C(=O)N[C@H](C(=O)NCCc2noc(C(C)(C)C)n2)CC(=O)N1C [Example 85, (9S,13S,19aR,22R)-22-benzyl-N-(2-(5-(tert-butyl)-1,2,4-oxadiazol-3-yl)ethyl)-13-isobutyl-12-methyl-7,11,14,20-tetraoxo-7,8,9,10,11,12,13,14,17,18,19,19a,20,21,22,23-hexadecahydro-16H-pyrido[2′,1′:6,7][1]oxa[4,7,10,14]tetraazacycloheptadecino[17,16-c]quinoline-9-carboxamide] | 260 |  |  | Emax [2]: 244%
Cc1cccc(CCNC(=O)[C@@H]2CC(=O)N(C)[C@@H](CC(C)C)C(=O)N(C)C3(CC3)C(=O)N[C@H](Cc3ccccc3)COc3cnc4ccccc4c3C(=O)N2)c1 [Example 112, (3′S,7′S,13′R)-13′-benzyl-7′-isobutyl-6′,9′-dimethyl-N-(3-methylphenethyl)-1′,5′,8′,11′-tetraoxo-2′,3′,4′,5′,6′,7′,8′,9′,11′,12′,13′,14′-dodecahydro-1′H-spiro[cyclopropane-1,10′-[1]oxa[4,7,10,14]tetraazacycloheptadecino[17,16-c]quinoline]-3′-carboxamide] | 817 |  |  | Emax [2]: 200%
COc1cccc(CCNC(=O)[C@@H]2CC(=O)N(C)[C@@H](CC3CCCCC3)C(=O)N(CCC3CCCCC3)CC(=O)N[C@H](Cc3ccccc3)COc3ccc4ccccc4c3C(=O)N2)c1 (mixture of isomers) [Example 301, (3RS,7S,13R)-13-benzyl-9-(2-cyclohexylethyl)-7-(cyclohexylmethyl)-N-(3-methoxyphenethyl)-6-methyl-1,5,8,11-tetraoxo-1,2,3,4,5,6,7,8,9,10,11,12,13,14-tetradecahydronaphtho[1,2-p][1]oxa[4,7,10,14]tetraazacycloheptadecine-3-carboxamide] | 112 |  |  | 
